Measured values reported in patent US11306078B2, “Piperidine CXCR7 receptor modulators” (IDORSIA PHARMACEUTICALS LTD., priority 2016, dated 2022).

Molecular target: human chemokine receptor CXCR7 (Homo sapiens (Human), UniProt P25106)
Assay: Tango CXCR7-bla U2OS beta-arrestin recruitment assay (beta-lactamase reporter, FRET), antagonism of CXCL12/SDF1-α;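 note: compounds preincubated 15 min before CXCL12 addition, then 22 h at 37 °C, FRET emission ratio read with CCF4-AM substrate after 2 h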
Assay type: cell-based
Conditions: antagonistic effect on CXCR7, Tango CXCR7-bla U2OS cells, CXCL12/SDF1-α at its EC80

human chemokine receptor CXCR7, sequence (P25106 whole entry): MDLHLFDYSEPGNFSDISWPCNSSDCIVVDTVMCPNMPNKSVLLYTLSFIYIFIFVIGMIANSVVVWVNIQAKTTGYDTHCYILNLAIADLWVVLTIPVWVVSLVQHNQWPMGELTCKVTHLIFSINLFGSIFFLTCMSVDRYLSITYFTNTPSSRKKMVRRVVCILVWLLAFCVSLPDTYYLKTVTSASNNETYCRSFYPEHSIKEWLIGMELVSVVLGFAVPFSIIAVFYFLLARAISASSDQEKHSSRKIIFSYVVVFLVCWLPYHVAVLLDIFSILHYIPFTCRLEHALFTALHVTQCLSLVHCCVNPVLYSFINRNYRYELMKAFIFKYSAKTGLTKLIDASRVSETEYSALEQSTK

IC50 [nM] | IC50 (geometric mean) [nM] | Compound
92 | – | O=C(N[C@@H]1CCN(C2CCCCC2)C[C@H]1C(=O)NC1(c2ccccn2)CC1)c1cn(-c2ccc(F)cc2F)nn1 (racemic) [Example 1.165, rac-(3R*,4R*)-1-Cyclohexyl-4-{[1-(2,4-difluoro-phenyl)-1H-[1,2,3]triazole-4-carbonyl]-amino}-piperidine-3-carboxylic acid (1-pyridin-2-yl-cyclopropyl)-amide]
58 | – | CCNC(=O)[C@@H]1CN(C2CCCCC2)CC[C@H]1NC(=O)c1cc(-c2ccc(F)cc2F)on1 (racemic) [Example 1.012, rac-(3R*,4R*)-1-Cyclohexyl-4-{[5-(2,4-difluoro-phenyl)-isoxazole-3-carbonyl]-amino}-piperidine-3-carboxylic acid ethylamide]
56 | – | C[C@@H](NC(=O)[C@H]1CN(CC2CC2)CC[C@@H]1NC(=O)c1cc(-c2ccc(F)cc2F)on1)c1cccnc1 [Example 4.024]
520 | – | O=C(N[C@@H]1CCN(C2CCCCC2)C[C@H]1C(=O)NCc1cnco1)c1cc(-c2ccc(F)cc2F)on1 (racemic) [Example 1.035, rac-(3R*,4R*)-1-Cyclohexyl-4-{[5-(2,4-difluoro-phenyl)-isoxazole-3-carbonyl]-amino}-piperidine-3-carboxylic acid (oxazol-5-ylmethyl)-amide]
140 | – | O=C(N[C@@H]1CCN(C2CCCCC2)C[C@H]1C(=O)NCCc1ccc(F)cc1)c1cc(-c2ccc(F)cc2F)on1 (racemic) [Example 1.059, rac-(3R*,4R*)-1-Cyclohexyl-4-{[5-(2,4-difluoro-phenyl)-isoxazole-3-carbonyl]-amino}-piperidine-3-carboxylic acid [2-(4-fluoro-phenyl)-ethyl]-amide]
75 | – | Cc1nc(C(C)(C)NC(=O)[C@H]2CN(CC3CC3)CC[C@@H]2NC(=O)c2cc(-c3ccc(F)cc3F)on2)no1 [Example 4.044]
2 | – | O=C(N[C@@H]1CCN(CC2CC2)C[C@H]1C(=O)N1CC[C@@H]1c1ccccc1)c1cc(-c2ccc(F)cc2F)on1 [Example 4.067b]
104 | – | O=C(N[C@H]1CCN(C2CCCC2)C[C@@H]1C(=O)NC1(c2cnccn2)CC1)c1cc(-c2ccc(F)cc2F)on1 [Example 1.181, (3S,4S)-1-Cyclopentyl-4-{[5-(2,4-difluoro-phenyl)-isoxazole-3-carbonyl]-amino}-piperidine-3-carboxylic acid (1-pyrazin-2-yl-cyclopropyl)-amide]
29 | – | O=C(N[C@H]1CCN(CC2CC(F)(F)C2)C[C@@H]1C(=O)NC1(c2ncccn2)CC1)c1cc(-c2ccc(F)cc2F)on1 [Example 2.101]
634 | – | O=C(N[C@H]1CCNC[C@@H]1C(=O)NC1(c2ncccn2)CC1)c1ncc(-c2ccc(F)cc2F)o1 [Example 2.096]
13 | – | O=C(N[C@H]1CCN(CC2(F)CC2)C[C@@H]1C(=O)NC1(c2ncccn2)CC1)c1nnc(-c2ccc(F)cc2F)s1 [Example 2.106]
91 | – | O=C(N[C@@H]1CCN(C2CCCCC2)C[C@H]1C(=O)NCCN1CCCC1=O)c1cc(-c2ccc(F)cc2F)on1 (racemic) [Example 1.041, rac-(3R*,4R*)-1-Cyclohexyl-4-{[5-(2,4-difluoro-phenyl)-isoxazole-3-carbonyl]-amino}-piperidine-3-carboxylic acid [2-(2-oxo-pyrrolidin-1-yl)-ethyl]-amide]
198 | – | Cc1cnc(CNC(=O)[C@@H]2CN(C3CCCCC3)CC[C@H]2NC(=O)c2cc(-c3ccc(F)cc3F)on2)s1 [Example 1.02]
430 | – | O=C(N[C@@H]1CCN(C2CCCCC2)C[C@H]1C(=O)N1CCC1)c1cc(-c2c(F)cc(F)cc2F)on1 (racemic) [Example 1.105, rac-5-(2,4,6-Trifluoro-phenyl)-isoxazole-3-carboxylic acid [(3R*,4R*)-3-(azetidine-1-carbonyl)-1-cyclohexyl-piperidin-4-yl]-amide]
867 | – | C[C@@H](NC(=O)[C@@H]1CN(C2CCCCC2)CC[C@H]1NC(=O)c1cc(-c2ccc(F)cc2F)on1)C(C)(C)C (relative stereo) [Example 1.093, (3R*,4R*)-1-Cyclohexyl-4-{[5-(2,4-difluoro-phenyl)-isoxazole-3-carbonyl]-amino}-piperidine-3-carboxylic acid ((R)-1,2,2-trimethyl-propyl)-amide]
10 | – | CC(NC(=O)[C@@H]1CN(C2CCCC2)CC[C@H]1NC(=O)c1cc(-c2ccc(F)cc2F)on1)c1ccccn1 (stereo partly drawn) [Example 2.009]
472 | – | O=C(N[C@@H]1CCN(C2CCCCC2)C[C@H]1C(=O)N1CCC(c2ccccn2)C1)c1cc(-c2ccc(F)cc2F)on1 (relative stereo) [Example 1.089, 5-(2,4-Difluoro-phenyl)-isoxazole-3-carboxylic acid [(3R*,4R*)-1-cyclohexyl-3-((3RS)-3-pyridin-2-yl-pyrrolidine-1-carbonyl)-piperidin-4-yl]-amide]
77 | – | C[C@@H](NC(=O)[C@H]1CN(C2CCC2)CC[C@@H]1NC(=O)c1cc(-c2ccc(F)cc2F)on1)c1ncccn1 [Example 4.084b]

IC50 [nM] | IC50 (geometric mean) [nM] | Compound
198 | – | CN(CCO)C(=O)[C@@H]1CN(C2CCCCC2)CC[C@H]1NC(=O)c1cc(-c2ccc(F)cc2F)on1 (racemic) [Example 1.005, rac-(3R*,4R*)-1-Cyclohexyl-4-{[5-(2,4-difluoro-phenyl)-isoxazole-3-carbonyl]-amino}-piperidine-3-carboxylic acid (2-hydroxy-ethyl)-methyl-amide]
318 | – | CC(NC(=O)[C@H]1CN(CC2CC2)CC[C@@H]1NC(=O)c1cc(-c2ccc(F)cc2F)on1)c1nc[nH]n1 (stereo partly drawn) [Example 4.047]
34 | – | CC(C)N1CC[C@@H](NC(=O)c2cc(-c3ccc(F)cc3F)on2)[C@H](C(=O)N(C)CCc2ccccc2)C1 [Example 2.003]
558 | – | CN(C)C(=O)[C@@H]1CN(C2CC(C)(C)C2)CC[C@H]1NC(=O)c1cc(-c2ccc(F)cc2F)on1 [Example 2.031]
9 | – | Cc1cc(C)nc(C2(NC(=O)[C@H]3CN(CC4CC4)CC[C@@H]3NC(=O)c3cc(-c4ccc(F)cc4F)on3)CC2)n1 [Example 1.185, (3S,4S)-1-Cyclopropylmethyl-4-{[5-(2,4-difluoro-phenyl)-isoxazole-3-carbonyl]-amino}-piperidine-3-carboxylic acid [1-(4,6-dimethyl-pyrimidin-2-yl)-cyclopropyl]-amide]
16 | – | CC(C1CC1)N1CC[C@@H](NC(=O)c2cc(-c3ccc(F)cc3F)on2)[C@H](C(=O)N(C)C)C1 (stereo partly drawn) [Example 2.046]
49 | – | C[C@@H]1CC[C@H]1N1CC[C@@H](NC(=O)c2cc(-c3ccc(F)cc3F)on2)[C@H](C(=O)N(C)C)C1 [Example 2.016a]
10 | – | C[C@@H](NC(=O)[C@@H]1CN(C2CCCC2)CC[C@H]1NC(=O)c1cc(-c2c(F)cc(F)cc2F)on1)c1ccccn1 (relative stereo) [Example 1.122, (3R*,4R*)-1-Cyclopentyl-4-{[5-(2,4,6-trifluoro-phenyl)-isoxazole-3-carbonyl]-amino}-piperidine-3-carboxylic acid ((R)-1-pyridin-2-yl-ethyl)-amide]
638 | – | C[C@@H]1CCC[C@H]1N1CC[C@@H](NC(=O)c2cc(-c3ccc(F)cc3F)no2)[C@H](C(=O)N[C@H](C)C2CCC2)C1 (relative stereo) [Example 1.162, (3R*,4R*)-4-{[3-(2,4-Difluoro-phenyl)-isoxazole-5-carbonyl]-amino}-1-((1RS,2RS)-2-Methyl-cyclopentyl)-piperidine-3-carboxylic acid ((R)-1-cyclobutyl-ethyl)-amide]
753 | – | Cc1cccc(CNC(=O)[C@H]2CN(CC3CC3)CC[C@@H]2NC(=O)c2cc(-c3ccc(F)cc3F)on2)n1 [Example 4.064]
18 | – | C[C@@H](NC(=O)[C@H]1CN(C2CCC2)CC[C@@H]1NC(=O)c1cc(-c2ccc(F)cc2F)on1)c1ncccc1F [Example 4.098]
556 | – | O=C(N[C@@H]1CCN(C2CCCCC2)C[C@H]1C(=O)NCC1CCCO1)c1cc(-c2ccc(F)cc2F)on1 (relative stereo) [Example 1.044, (3R*,4R*)-1-Cyclohexyl-4-{[5-(2,4-difluoro-phenyl)-isoxazole-3-carbonyl]-amino}-piperidine-3-carboxylic acid ((2RS)-tetrahydro-furan-2-ylmethyl)-amide]
118 | – | COCC(C)(C)NC(=O)[C@@H]1CN(CC2CC2)CC[C@H]1NC(=O)c1cc(-c2c(F)cc(F)cc2F)on1 (racemic) [Example 1.113, rac-(3R*,4R*)-1-Cyclopropylmethyl-4-{[5-(2,4,6-trifluoro-phenyl)-isoxazole-3-carbonyl]-amino}-piperidine-3-carboxylic acid (2-methoxy-1,1-dimethyl-ethyl)-amide]
– | 1330 | O=C(N[C@H]1CCN(CC2CC2)C[C@@H]1C(=O)NC1(c2ncccn2)CC1)c1cc(-c2ccccc2)on1 [Reference Example 3, (3S,4S)-1-Cyclopropylmethyl-4-[(5-phenyl-isoxazole-3-carbonyl)-amino]-piperidine-3-carboxylic Acid (1-pyrimidin-2-yl-cyclopropyl)-amide, reference compound]
201 | – | O=C(N[C@@H]1CCN(C2CCC2)C[C@H]1C(=O)NC1(c2cccc(Cl)c2)COC1)c1cc(-c2ccc(F)cc2F)on1 [Example 4.094]
11 | – | O=C(N[C@@H]1CCN(CC2CC2)C[C@H]1C(=O)NC1(c2ccccn2)CCC1)c1cc(-c2ccc(F)cc2F)on1 (racemic) [Example 1.197, rac-(3R*,4R*)-1-Cyclopropylmethyl-4-{[5-(2,4-difluoro-phenyl)-isoxazole-3-carbonyl]-amino}-piperidine-3-carboxylic acid (1-pyridin-2-yl-cyclobutyl)-amide]
693 | – | O=C(N[C@@H]1CCN(C2CCCCC2)C[C@H]1C(=O)N1CC(F)C1)c1cc(-c2ccc(F)cc2F)on1 (racemic) [Example 1.036, rac-5-(2,4-Difluoro-phenyl)-isoxazole-3-carboxylic acid [(3R*,4R*)-1-cyclohexyl-3-(3-fluoro-azetidine-1-carbonyl)-piperidin-4-yl]-amide]
148 | – | CC(NC(=O)[C@H]1CN(CC2CC2)CC[C@@H]1NC(=O)c1cc(-c2ccc(F)cc2F)on1)c1ccon1 (stereo partly drawn) [Example 4.049]
